Experimental data reported in patent US20140107021A1 (priority 2010, published 2014).
Like-named read-outs stand apart in the source and are kept apart here. Blank lines part the entries; values can stand above or below the molecule they belong to. Square brackets hold non-standard residues; d marks the D form. Ends that are not written are not given here. Peptide text beside a SMILES is read from it. MCA = alpha-methylhydrocinnamic acid (2-methyl-3-phenylpropanoic acid); PEG 20 kDa = PEG of about 20 kDa linked to Cys (maleimido methoxyPEG); PLA = 3-phenyllactic acid (2-hydroxy-3-phenylpropanoic acid)

Tests used:
[1] = molecular target: T1, glucagon receptor (Homo sapiens, UniProt P47871); test: cell-based; settings: for IC50(nM) (cΛMP, inhibit 0.2 mM Glucagon): Table L
Text: (§1) HEK293 cells co-transfected with the receptor and luciferase gene linked to a cAMP responsive element were employed for the bioassay.
(§2) All EC50s and IC50s are reported in the following examples in nM, unless indicated otherwise.

[2] = molecular target: T2, GLP-1 receptor (Homo sapiens, UniProt P43220); test: cAMP induction at the GLP-1 receptor (agonist activity), firefly luciferase reporter assay in HEK293 cells; format: cell-based
T2 construct: expressed in transfected cells; host or cells: HEK293
Text: as §1, §2

[3] = molecular target: T1, glucagon receptor; test: cAMP induction at the glucagon receptor (agonist activity), luciferase reporter assay in HEK293 cells; format: cell-based; design: expressed in transfected cells; host or cells: HEK293; settings: Table E; read-out: cAMP Induction EC50
Text: as §1, §2

T1 sequence (P47871 26-477): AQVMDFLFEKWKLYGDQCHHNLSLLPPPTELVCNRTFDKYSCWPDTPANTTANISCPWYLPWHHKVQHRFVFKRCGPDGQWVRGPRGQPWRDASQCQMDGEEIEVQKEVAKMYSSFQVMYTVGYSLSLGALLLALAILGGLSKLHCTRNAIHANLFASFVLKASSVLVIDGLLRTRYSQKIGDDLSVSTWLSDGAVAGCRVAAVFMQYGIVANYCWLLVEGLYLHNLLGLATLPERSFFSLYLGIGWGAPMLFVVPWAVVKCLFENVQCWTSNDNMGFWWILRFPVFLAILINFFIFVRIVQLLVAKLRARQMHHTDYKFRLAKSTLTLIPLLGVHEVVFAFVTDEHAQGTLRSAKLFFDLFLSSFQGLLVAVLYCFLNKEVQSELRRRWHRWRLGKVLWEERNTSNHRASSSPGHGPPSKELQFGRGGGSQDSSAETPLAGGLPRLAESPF
T2 sequence (P43220 24-463): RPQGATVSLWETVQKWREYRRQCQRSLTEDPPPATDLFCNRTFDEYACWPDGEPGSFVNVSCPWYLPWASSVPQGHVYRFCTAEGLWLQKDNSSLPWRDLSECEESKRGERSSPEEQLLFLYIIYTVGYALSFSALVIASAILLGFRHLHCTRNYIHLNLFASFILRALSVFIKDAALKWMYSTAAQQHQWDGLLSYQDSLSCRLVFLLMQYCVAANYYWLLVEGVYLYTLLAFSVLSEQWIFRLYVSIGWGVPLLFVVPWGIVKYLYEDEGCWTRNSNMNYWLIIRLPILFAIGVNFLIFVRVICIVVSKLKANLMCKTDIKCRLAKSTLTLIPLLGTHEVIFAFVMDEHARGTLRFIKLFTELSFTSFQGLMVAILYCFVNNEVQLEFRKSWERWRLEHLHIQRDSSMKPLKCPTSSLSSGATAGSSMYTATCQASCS

Molecule: CSCC[C@H](NC(=O)[C@H](CC(C)C)NC(=O)[C@H](Cc1c[nH]c2ccccc12)NC(=O)[C@H](CCC(N)=O)NC(=O)[C@@H](NC(=O)[C@H](Cc1ccccc1)NC(=O)[C@H](CC(=O)O)NC(=O)[C@@H]1CCCCNC(=O)CC[C@H](NC(=O)[C@H](CC(=O)O)NC(=O)[C@H](CC(C)C)NC(=O)[C@H](Cc2ccc(O)cc2)NC(=O)[C@H](CCCCN)NC(=O)[C@H](CO)NC(=O)[C@H](Cc2ccc(O)cc2)NC(=O)[C@H](CCC(=O)O)NC(=O)[C@H](CO)NC(=O)[C@@H](NC(=O)[C@@H](O)Cc2ccccc2)[C@@H](C)O)C(=O)N[C@@H](CCCNC(=N)N)C(=O)N[C@@H](CCCNC(=N)N)C(=O)N[C@@H](C)C(=O)N1)C(C)C)C(=O)N[C@@H](CC(N)=O)C(=O)N[C@H](C(=O)NCC(=O)N1CCC[C@H]1C(=O)N[C@@H](CO)C(=O)N[C@@H](CO)C(=O)NCC(=O)N[C@@H](C)C(=O)N1CCC[C@H]1C(=O)N1CCC[C@H]1C(=O)N1CCC[C@H]1C(=O)N[C@@H](CO)C(N)=O)[C@@H](C)O [[PLA6, E9, E16K20(Lactam)]]
EC50 ([2]; GLP-1 EC50 (nM), Table C): 20 nM
EC50 ([2]; GLP-1 ECso (nM), Table A): 20 nM
IC50 ([1]; Glu ICso (nM), Table A, Glu = glucagon): 20 nM
IC50 ([1]; Glucagon IC50 (nM), Table C): 20 nM

Molecule: CSCC[C@H](NC(=O)[C@H](CC(C)C)NC(=O)[C@H](Cc1c[nH]c2ccccc12)NC(=O)[C@H](CCC(N)=O)NC(=O)[C@@H](NC(=O)[C@H](Cc1ccccc1)NC(=O)[C@H](CC(=O)O)NC(=O)[C@H](CCC(N)=O)NC(=O)[C@H](C)NC(=O)[C@H](CCCNC(=N)N)NC(=O)[C@H](CCCNC(=N)N)NC(=O)[C@H](CO)NC(=O)[C@H](CC(=O)O)NC(=O)[C@H](CC(C)C)NC(=O)[C@H](Cc1ccc(O)cc1)NC(=O)[C@H](CCCCN)NC(=O)[C@H](CO)NC(=O)[C@H](Cc1ccc(O)cc1)NC(=O)[C@H](CCC(=O)O)NC(=O)[C@H](CO)NC(=O)[C@@H](NC(=O)[C@H](Cc1ccccc1)NC(=O)[C@@H](NC(=O)[C@@H](O)Cc1ccccc1)[C@@H](C)O)[C@@H](C)O)C(C)C)C(=O)N[C@@H](CC(N)=O)C(=O)N[C@H](C(N)=O)[C@@H](C)O [[PLA^4, E^9]Glucagon(aa4-29)-NH2] (HELM PEPTIDE1{[O=C([C@@H](O)Cc1ccccc1)[*:2]].T.F.T.S.E.Y.S.K.Y.L.D.S.R.R.A.Q.D.F.V.Q.W.L.M.N.T.[am]}$$$$V2.0)
IC50 ([1]; IC50(nM) (cAMP, inhibit 0.8 mM Glucagon), Table K, inhibit 0.8 mM Glucagon): 84.4 ± 19.5 nM

Molecule: FTSDYSKYLDSRRAQDFVQWLMNT-NH2 [Glucagon(aa6-29)-NH2]
Kb [1]: 0.115 µM
cAMP (I/A)50 [1]: 1730
cAMP pA2 [1]: 6.94 ± 0.63

Molecule: GTFTSEYSKYLDSRRAQDFVQWLMNT-NH2 [[Glu^9]Glucagon(aa4-29)-NH2]
Kb [1]: 0.0891 µM

Molecule: H-FTSKYSKYLDSRRAQDFVQWLMNT-NH2 [[Lys^9]Glucagon(aa6-29)-NH2]
Kb [1]: 0.263 µM
cAMP (I/A)50 [1]: 1990
cAMP pA2 [1]: 6.58 ± 0.60

Molecule: HSQGTFTSDYARYLDARRAREFIKWLVRGRG [ANK2 (Bayer peptide), reference compound]
Glucagon IC50 (nM) ([1]; Table B): agonist

Molecule: [PLA6, C8(1.2 kDaPEG), E9]Glucagon(aa6-29)-NH2 ({PLA}-TC(PEG 1.2 kDa)EYSKYLDSRRAQDFVQWLMNT-NH2)
IC50(nM) (cΛMP, inhibit 0.2 mM Glucagon) [1]: no antagonism

The next lines start with the values.

IC50 ([1]; read-out: Glucagon IC50, Table B): 63 nM
Molecule: CSCC[C@H](NC(=O)[C@H](CC(C)C)NC(=O)[C@H](Cc1c[nH]c2ccccc12)NC(=O)[C@H](CCC(N)=O)NC(=O)[C@@H](NC(=O)[C@H](Cc1ccccc1)NC(=O)[C@H](CC(=O)O)NC(=O)[C@@H]1CCCCNC(=O)CC[C@H](NC(=O)[C@H](CC(=O)O)NC(=O)[C@H](CC(C)C)NC(=O)[C@H](Cc2ccc(O)cc2)NC(=O)[C@H](CCCCN)NC(=O)[C@H](CO)NC(=O)[C@H](Cc2ccc(O)cc2)NC(=O)[C@H](CCC(=O)O)NC(=O)[C@H](CO)NC(=O)[C@@H](NC(=O)[C@H](Cc2ccccc2)NC(=O)[C@@H](NC(=O)CNC(=O)[C@H](CCC(=O)O)NC(=O)[C@H](C)N)[C@@H](C)O)[C@@H](C)O)C(=O)N[C@@H](CCCNC(=N)N)C(=O)N[C@@H](CCCNC(=N)N)C(=O)N[C@@H](C)C(=O)N1)C(C)C)C(=O)N[C@@H](CC(=O)O)C(=O)N[C@H](C(N)=O)[C@@H](C)O [[A2E3, E16K20(Lactam),D28]G(2~29)]

IC50 ([1]; Glucagon IC50 (nM), Table B): 63 nM
Molecule: CSCC[C@H](NC(=O)[C@H](CC(C)C)NC(=O)[C@H](Cc1c[nH]c2ccccc12)NC(=O)[C@H](CCC(N)=O)NC(=O)[C@@H](NC(=O)[C@H](Cc1ccccc1)NC(=O)[C@H](CC(=O)O)NC(=O)[C@H](CCC(N)=O)NC(=O)[C@H](C)NC(=O)[C@H](CCCNC(=N)N)NC(=O)[C@H](CCCNC(=N)N)NC(=O)[C@@H]1CCC(=O)NCCCC[C@H](NC(=O)[C@H](CO)NC(=O)[C@H](Cc2ccc(O)cc2)NC(=O)[C@H](CC(=O)O)NC(=O)[C@H](CO)NC(=O)[C@@H](NC(=O)[C@@H](O)Cc2ccccc2)[C@@H](C)O)C(=O)N[C@@H](Cc2ccc(O)cc2)C(=O)N[C@@H](CC(C)C)C(=O)N[C@@H](CC(=O)O)C(=O)N1)C(C)C)C(=O)N[C@@H](CC(=O)O)C(=O)N[C@H](C(N)=O)[C@@H](C)O [[PLA6, D9, K12E16(Lactam), D28]G(6-29)] (HELM PEPTIDE1{[O=C([C@@H](O)Cc1ccccc1)[*:2]].T.S.D.Y.S.K.Y.L.D.E.R.R.A.Q.D.F.V.Q.W.L.M.D.T.[am]}$PEPTIDE1,PEPTIDE1,7:R3-11:R3$$$V2.0)

EC50 [3]: 1.61 ± 1.13 µM
Molecule: CC(C)C[C@H](NC(=O)[C@H](Cc1ccc(O)cc1)NC(=O)[C@H](CCCCN)NC(=O)[C@H](CO)NC(=O)[C@H](Cc1ccc(O)cc1)NC(=O)[C@H](CCS(=O)(=O)O)NC(=O)[C@H](CO)NC(=O)[C@@H](NC(=O)[C@H](Cc1ccccc1)NC(=O)[C@@H](NC(=O)[C@H](CC(C)C)NC(=O)[C@H](CCC(N)=O)NC(=O)[C@@H](N)CO)[C@@H](C)O)[C@@H](C)O)C(=O)N[C@@H](CC(=O)O)C(=O)N[C@@H](CO)C(=O)N[C@@H](CCCNC(=N)N)C(=O)N[C@@H](CCCNC(=N)N)C(=O)N[C@@H](C)C(=O)N[C@@H](CCC(N)=O)C(=O)N[C@@H](CC(=O)O)C(=O)N[C@@H](Cc1ccccc1)C(=O)N[C@H](C(=O)N[C@@H](CCC(N)=O)C(=O)N[C@@H](Cc1ccccc1)C(=O)N[C@@H](CC(C)C)C(=O)N[C@@H](CC(C)C)C(=O)N[C@@H](CC(N)=O)C(=O)N[C@H](C(N)=O)[C@@H](C)O)C(C)C [[desHis^1, Leu^4, hCys^9(SO3—), Phe^25, Leu^27]Glucagon-NH2] (HELM PEPTIDE1{S.Q.L.T.F.T.S.[O=C([C@H](CCS(=O)(=O)O)N[*:1])[*:2]].Y.S.K.Y.L.D.S.R.R.A.Q.D.F.V.Q.F.L.L.N.T.[am]}$$$$V2.0)

Kb [1]: 0.0603 µM
Molecule: CSCC[C@H](NC(=O)[C@H](CC(C)C)NC(=O)[C@H](Cc1c[nH]c2ccccc12)NC(=O)[C@H](CCC(N)=O)NC(=O)[C@@H](NC(=O)[C@H](Cc1ccccc1)NC(=O)[C@H](CC(=O)O)NC(=O)[C@H](CCC(N)=O)NC(=O)[C@H](C)NC(=O)[C@H](CCCNC(=N)N)NC(=O)[C@H](CCCNC(=N)N)NC(=O)[C@H](CO)NC(=O)[C@H](CC(=O)O)NC(=O)[C@H](CC(C)C)NC(=O)[C@H](Cc1ccc(O)cc1)NC(=O)[C@H](CCCCN)NC(=O)[C@H](CO)NC(=O)[C@H](Cc1ccc(O)cc1)NC(=O)[C@H](CCS(=O)(=O)O)NC(=O)[C@H](CO)NC(=O)[C@@H](NC(=O)[C@H](Cc1ccccc1)NC(=O)[C@@H](NC(=O)CN)[C@@H](C)O)[C@@H](C)O)C(C)C)C(=O)N[C@@H](CC(N)=O)C(=O)N[C@H](C(N)=O)[C@@H](C)O [[hCys^9(SO3H)]Glucagon(aa4-29)-NH2] (HELM PEPTIDE1{G.T.F.T.S.[O=C([C@H](CCS(=O)(=O)O)N[*:1])[*:2]].Y.S.K.Y.L.D.S.R.R.A.Q.D.F.V.Q.W.L.M.N.T.[am]}$$$$V2.0; N-terminus assumed)

Kb [1]: 0.17 µM
Molecule: CSCC[C@H](NC(=O)[C@H](CC(C)C)NC(=O)[C@H](Cc1c[nH]c2ccccc12)NC(=O)[C@H](CCC(N)=O)NC(=O)[C@@H](NC(=O)[C@H](Cc1ccccc1)NC(=O)[C@H](CC(=O)O)NC(=O)[C@H](CCC(N)=O)NC(=O)[C@H](C)NC(=O)[C@H](CCCNC(=N)N)NC(=O)[C@H](CCCNC(=N)N)NC(=O)[C@H](CO)NC(=O)[C@H](CC(=O)O)NC(=O)[C@H](CC(C)C)NC(=O)[C@H](Cc1ccc(O)cc1)NC(=O)[C@H](CCCCN)NC(=O)[C@H](CO)NC(=O)[C@H](Cc1ccc(O)cc1)NC(=O)[C@H](CCS(=O)(=O)O)NC(=O)[C@H](CO)NC(=O)[C@@H](NC(=O)[C@H](Cc1ccccc1)NC(=O)[C@@H](N)[C@@H](C)O)[C@@H](C)O)C(C)C)C(=O)N[C@@H](CC(N)=O)C(=O)N[C@H](C(N)=O)[C@@H](C)O [[hCys^9(SO3H)]Glucagon(aa5-29)-NH2] (HELM PEPTIDE1{T.F.T.S.[O=C([C@H](CCS(=O)(=O)O)N[*:1])[*:2]].Y.S.K.Y.L.D.S.R.R.A.Q.D.F.V.Q.W.L.M.N.T.[am]}$$$$V2.0; N-terminus assumed)

IC50(nM) (cΛMP, inhibit 0.2 mM Glucagon) [1]: no antagonism
Molecule: [MCA6, E9, C24(20 kDaPEG)]Glucagon(aa6-29)-NII2 ([MCA]TSEYSKYLDSRRAQDFVC(PEG 20 kDa)WLMNT-NH2)
